Measurements from paper PMC11413682 (Acta Pharmaceutica Sinica. B, 2024).
Where two headings read alike, the source gives them in different places. Residues, ends and D or L forms follow the SMILES beside them. No end group written: not given here.

Molecular target: T1, CUL2^ZYG11B (residues 490–728) (Homo sapiens, UniProt Q9C0D3)
T1 construct: PCR was used to amplify CUL2^ZYG11B (residues 490–728); 6×His-SUMO (TEV-cleavable) (N, cleaved yes); made in house; host or cells: E. coli
Assay: ITC binding of ORF10 NTE synthetic peptides to CUL2^ZYG11B

[1] = figure panels, […], repeated 3 times, read-out: Kd

T1 sequence (Q9C0D3 490-728): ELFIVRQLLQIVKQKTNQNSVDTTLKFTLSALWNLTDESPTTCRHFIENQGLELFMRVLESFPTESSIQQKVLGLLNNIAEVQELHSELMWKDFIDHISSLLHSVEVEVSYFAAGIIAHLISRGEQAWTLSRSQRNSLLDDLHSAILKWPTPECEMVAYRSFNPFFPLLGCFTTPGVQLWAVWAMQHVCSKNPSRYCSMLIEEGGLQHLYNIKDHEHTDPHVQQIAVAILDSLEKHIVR

## GFWCR [SNX11-degron-5, reference compound]
Table S4, ITC, MicroCal iTC200, peptide 0.5–1 mmol/L in syringe, protein 0.03 mmol/L in cell, 18 x 2 μL injections, repeated 3 times, Kd calculated as 1/Ka, read-out: Kd
  Kd: 0.4 µM

## CC[C@H](C)[C@H](NC(=O)[C@H](Cc1ccc(O)cc1)NC(=O)CN)C(=O)N[C@@H](CC(N)=O)C(=O)O [SARS-2 ORF10 N4] (H-GYIN-OH)
[1]
  Kd: 5.18 µM

## NCC(=O)N[C@@H](Cc1ccc(O)cc1)C(=O)O [SARS-2 ORF10 N2] (H-Gly-Tyr-OH; N-terminus and C-terminus assumed)
  Kd: > 200 µM
ITC
  binding to CUL2^ZYG11B (in words): did not bind
Table S4, ITC
  N, stoichiometry: 5.05
  ΔS, entropy variation: 6.52 cal/mole/deg

## CC[C@H](C)[C@H](NC(=O)[C@H](Cc1ccc(O)cc1)NC(=O)CN)C(=O)O [SARS-2 ORF10 N3] (H-Gly-Tyr-Ile-OH)
[1]
  Kd: 14.5 µM

## SYINV [SARS-2 ORF10 N5-G1S]
  Kd: 13.2 µM

## GPINV [SARS-2 ORF10 N5-Y2P, altered peptide derived from SARS-CoV-2 ORF10 N5, Y2P]
ITC
  binding to CUL2^ZYG11B (in words): disrupted binding completely

## GAINV [SARS-2 ORF10 N5-Y2A]
[1]
  Kd: 25.2 µM
